Measured values published in patent US12419307B2, “Mixtures comprising indazole pesticides” (FMC Corporation, priority 2019, dated 2025).
Where two headings read alike, the source gives them in different places.

Columns and labels:
Type in all cases: in vivo
[1] = test system: silverleaf whitefly (Bemisia argentifolii Bellows and Perring); assay: Test A: silverleaf whitefly control on cotton or soybean plants, spray, insect mortality after 13 days; conditions: Bemisia argentifolii, applied alone, read-out: % Mortality (obs)
How it was run: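 Cotton (12–14-day) or soybean (5–7-day) plants carrying whitefly eggs were sprayed with compound in 10% acetone/water with non-ionic surfactant. Plants were held 13 days at 28°C and 50–70% RH; mortality was averaged over three replicates. Mixture enhancement was judged against Colby-expected values.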

[2] = test system: Western Flower Thrips (Frankliniella occidentalis Pergande); assay: Test B: Western Flower Thrips control on bean plants, plant damage rating converted to % plant protection after 7 days; conditions: for pest or weed control at 2.93 ppm / pest or weed control at 16.1 ppm: Frankliniella occidentalis, 168 h, read-out: Plant Protection (obs); for Plant Damage (obs): Table 3a; for Plant Damage (obs) / Plant Protection (obs): applied alone
How it was run: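 Sprayed 5- to 7-day-old bean (var. Soleil) plants, 3 replicates, dried 1 h, then infested with 22 to 27 adult thrips and held 7 days at 25° C, 45-55% RH. Feeding damage rated 0-10 and converted as 100−(rating×10) to % plant protection.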

[3] = test system: cotton melon aphid (Aphis gossypii Glover); assay: Test D: cotton melon aphid control on okra plants, insect mortality after 6 days; conditions: Aphis gossypii, read-out: % Mortality (obs)
How it was run: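 Okra plants (6–7 days old) pre-infested with 30–40 aphids by cut-leaf transfer were sprayed, three replicates, then held 6 days at 19-21° C and 50-70% RH before mortality scoring. Mixture enhancement was judged against Colby-expected % mortality.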

In the case of `CC(C)(CS(C)(=O)=O)NC(=O)c1ccc(F)c2nn(-c3cccnc3)cc12` [Cpd 3, N-[1,1-dimethyl-2-(methylsulfonyl)ethyl]-7-fluoro-2-(3-pyridinyl)-2H-indazole-4-carboxamide], the mortality at 50 ppm ([1]; 2 h, Table 2h) is reported as 0%, the mortality at 250 ppm ([1]; 2 h, Table 2h) is reported as 0% and the mortality at 50 ppm ([1]; 48 h, Table 2d) is reported as 1.2%. It also gave a mortality at 250 ppm ([1]; 48 h, Table 2d) of 1.1%, a mortality at 50 ppm ([1]; Table 2a) of 25% and a mortality at 250 ppm ([1]; Table 2a) of 1.6%. It also gave a mortality at 50 ppm ([1]; Table 2b) of 0%, a mortality at 250 ppm ([1]; Table 2b) of 0% and a mortality at 50 ppm ([1]; Table 2c) of 16.1%. The mortality at 250 ppm ([1]; Table 2c) was 26.7%, the mortality at 50 ppm ([1]; Table 2e) was 1.3% and the mortality at 250 ppm ([1]; Table 2e) was 1.2%. For the same molecule, the mortality at 50 ppm ([1]; Table 2f) was 21.2%, the mortality at 250 ppm ([1]; Table 2f) was 25.3% and the mortality at 50 ppm ([1]; Table 2g) was 18%. The mortality at 250 ppm ([1]; Table 2g) was 27.7%, the pest or weed control at 2.93 ppm ([2]; Table 3e, 2.93 ppm) was 83.3% and the pest or weed control at 16.1 ppm ([2]; Table 3e, 16.1 ppm) was 80%. It also gave a pest or weed control at 2.93 ppm ([2]; Table 3f, 2.93 ppm) of 40%, a pest or weed control at 16.1 ppm ([2]; Table 3f, 16.1 ppm) of 86.7% and a pest or weed control at 2.93 ppm ([2]; Table 3g, 2.93 ppm) of 43.3%. For the same molecule, the pest or weed control at 16.1 ppm ([2]; Table 3g, 16.1 ppm) was 70%, the “Plant Damage (obs)” value ([2]; 2.93 ppm) was 13.3% and the “Plant Damage (obs)” value ([2]; 16.1 ppm) was 83.3%. For the same molecule, the “Plant Protection (obs)” value ([2]; Table 3b, 2.93 ppm) was 40.0%, the “Plant Protection (obs)” value ([2]; Table 3b, 16.1 ppm) was 76.7% and the “Plant Protection (obs)” value ([2]; Table 3c, 2.93 ppm) was 33.3%. The “Plant Protection (obs)” value ([2]; Table 3c, 16.1 ppm) was 80.0%, the mortality at 0.02 ppm ([3]; 5 h, Table 5h) was 37.4% and the mortality at 0.08 ppm ([3]; 5 h, Table 5h) was 43.5%. The mortality at 0.02 ppm ([3]; 120 h, Table 5d) was 20%, the mortality at 0.08 ppm ([3]; 120 h, Table 5d) was 43.2% and the mortality at 0.02 ppm ([3]; Table 5a) was 20%. The mortality at 0.08 ppm ([3]; Table 5a) was 43.2%, the mortality at 0.02 ppm ([3]; Table 5b) was 20% and the mortality at 0.08 ppm ([3]; Table 5b) was 43.2%. The mortality at 0.02 ppm ([3]; Table 5c) was 0%, the mortality at 0.08 ppm ([3]; Table 5c) was 20% and the mortality at 0.02 ppm ([3]; Table 5e) was 19.9%. For the same molecule, the mortality at 0.08 ppm ([3]; Table 5e) was 31.1%, the mortality at 0.02 ppm ([3]; Table 5f) was 17.6% and the mortality at 0.08 ppm ([3]; Table 5f) was 39%. For the same molecule, the mortality at 0.02 ppm ([3]; Table 5g) was 15.8% and the mortality at 0.08 ppm ([3]; Table 5g) was 30.6%.
